From ChEMBL document CHEMBL3217491, “Design, synthesis and biological evaluation of imidazopyridine/pyrimidine-chalcone derivatives as potential anticancer agents” (2010)
Calls of active or inactive are those of the source. No cut-off for these calls is given here.

Experiments:
[1] = test system: MCF7; test: Growth inhibition of human MCF7 cells after 48 hrs by SRB assay; type: functional; conditions: MCF7, 48 h
[2] = Growth inhibition of human BT549 cells after 48 hrs by SRB assay; type: functional; conditions: BT-549, 48 h
[3] = Growth inhibition of human UACC257 cells after 48 hrs by SRB assay; type: functional; conditions: UACC-257, 48 h
[4] = test system: MCF7; test: Cell cycle arrest in human MCF7 cells assessed as accumulation at G0/G1 phase at 4 uM after 24 hrs by propidium iodide staining-based flow cytometry (reference value: 64.04%); type: functional
[5] = test system: MCF7; test: Cell cycle arrest in human MCF7 cells assessed as accumulation at G2/M phase at 4 uM after 24 hrs by propidium iodide staining-based flow cytometry (reference value: 15.79%); type: functional
[6] = test system: MCF7; test: Induction of cell cycle arrestin human MCF7 cells assessed as downregulation of E2F-1 protein expression at 4 uM by Western blot analysis; type: functional, cell-based
[7] = test system: RPMI-8226; test: Growth inhibition of human RPMI8226 cells after 48 hrs by SRB assay; type: functional; conditions: RPMI-8226, 48 h
[8] = test system: A549; test: Growth inhibition of human A549 cells after 48 hrs by SRB assay; type: functional; conditions: A549, 48 h
[9] = test system: NCI-H226; test: Growth inhibition of human NCI-H226 cells after 48 hrs by SRB assay; type: functional; conditions: NCI-H226, 48 h
[10] = test system: NCI-H460; test: Growth inhibition of human NCI-H460 cells after 48 hrs by SRB assay; type: functional; conditions: NCI-H460, 48 h
[11] = test system: NCI-H522; test: Growth inhibition of human NCI-H522 cells after 48 hrs by SRB assay; type: functional; conditions: NCI-H522, 48 h
[12] = test system: HCT-116; test: Growth inhibition of human HCT116 cells after 48 hrs by SRB assay; type: functional; conditions: HCT-116, 48 h
[13] = test system: KM12; test: Growth inhibition of human KM12 cells after 48 hrs by SRB assay; type: functional; conditions: KM12, 48 h
[14] = test system: SNB-75; test: Growth inhibition of human SNB75 cells after 48 hrs by SRB assay; type: functional; conditions: SNB-75, 48 h
[15] = Growth inhibition of human OVCAR3 cells after 48 hrs by SRB assay; type: functional; conditions: OVCAR-3, 48 h
[16] = Growth inhibition of human NCI-ADR-RES cells after 48 hrs by SRB assay; type: functional
[17] = test system: 786-0; test: Growth inhibition of human 786-0 cells after 48 hrs by SRB assay; type: functional; conditions: 786-0, 48 h
[18] = test system: A498; test: Growth inhibition of human A498 cells after 48 hrs by SRB assay; type: functional; conditions: A498, 48 h
[19] = Growth inhibition of human UO31 cells after 48 hrs by SRB assay; type: functional; conditions: UO-31, 48 h

COc1ccc(C(=O)/C=C/c2c(C(F)(F)F)nc3ccccn23)cc1OC showed a GI50 [1] of 560 nM, a GI50 [2] of 2590 nM and a GI50 [3] of 620 nM. For the same compound, the Activity [4] was 97.86%, the Activity [5] was 0.31% and the inhibition [6] was “inactive”. For the same compound, the GI50 [7] was 290 nM, the GI50 [8] was 2800 nM and the GI50 [9] was 4550 nM. The GI50 [10] was 680 nM, the GI50 [11] was 5730 nM and the GI50 [12] was 840 nM. For the same compound, the GI50 [13] was 570 nM, the GI50 [14] was 2350 nM and the GI50 [15] was 1980 nM. For the same compound, the GI50 [16] was 1570 nM, the GI50 [17] was 2870 nM and the GI50 [18] was 2450 nM. It also gave a GI50 [19] of 1440 nM.
